# Source: the NIST ThermoML archive (doi:10.1021/je501051p)
# ± gives the expanded uncertainty stated by the source.
# Assay: mn = molality of the nth substance listed, in mol/kg
# Settings: 303 K, Ring tensiometer
smiles,measurement,setting,value
CCCCCCCCCCc1ccc(C(=O)NCC(=O)[O-])cn1.[Na+] [sodium (6-decylnicotinoyl)glycinate] + O,surface tension liquid-gas,m1 = 1.995e-05,64.7 ± 2.1 mN/m
same,surface tension liquid-gas,m1 = 2.818e-05,61.8 ± 2.1 mN/m
same,surface tension liquid-gas,m1 = 4.786e-05,59.4 ± 2.1 mN/m
same,surface tension liquid-gas,m1 = 5.888e-05,58.1 ± 2.1 mN/m
same,surface tension liquid-gas,m1 = 8.128e-05,56.6 ± 2.1 mN/m
same,surface tension liquid-gas,m1 = 0.0001148,55.2 ± 2.1 mN/m
same,surface tension liquid-gas,m1 = 0.0001514,53.2 ± 2.1 mN/m
same,surface tension liquid-gas,m1 = 0.0002512,52.5 ± 2.1 mN/m
same,surface tension liquid-gas,m1 = 0.000302,50 ± 2.1 mN/m
same,surface tension liquid-gas,m1 = 0.0005012,47 ± 2.1 mN/m
same,surface tension liquid-gas,m1 = 0.0008128,46 ± 2.1 mN/m
same,surface tension liquid-gas,m1 = 0.001,45 ± 2.1 mN/m
same,surface tension liquid-gas,m1 = 0.001514,44 ± 2.1 mN/m
same,surface tension liquid-gas,m1 = 0.002042,43 ± 2.1 mN/m
same,surface tension liquid-gas,m1 = 0.002291,42 ± 2.1 mN/m
same,surface tension liquid-gas,m1 = 0.002512,40.5 ± 2.1 mN/m
same,surface tension liquid-gas,m1 = 0.00302,40.5 ± 2.1 mN/m
same,surface tension liquid-gas,m1 = 0.003548,40.5 ± 2.1 mN/m
same,surface tension liquid-gas,m1 = 0.004074,40.5 ± 2.1 mN/m
same,surface tension liquid-gas,m1 = 0.005012,40.5 ± 2.1 mN/m
same,surface tension liquid-gas,m1 = 0.006026,40.5 ± 2.1 mN/m
CCCCCCCCCCc1ccc(C(=O)[O-])cn1.[Na+] [sodium 6-decylnicotinate] + O,surface tension liquid-gas,m1 = 1e-05,65 ± 2.1 mN/m
same,surface tension liquid-gas,m1 = 1.479e-05,63.7 ± 2.1 mN/m
same,surface tension liquid-gas,m1 = 2.512e-05,62.02 ± 2.1 mN/m
same,surface tension liquid-gas,m1 = 4.074e-05,59.6 ± 2.1 mN/m
same,surface tension liquid-gas,m1 = 5.495e-05,58.45 ± 2.1 mN/m
same,surface tension liquid-gas,m1 = 7.586e-05,56.75 ± 2.1 mN/m
same,surface tension liquid-gas,m1 = 0.0001,55.75 ± 2.1 mN/m
same,surface tension liquid-gas,m1 = 0.000123,54.56 ± 2.1 mN/m
same,surface tension liquid-gas,m1 = 0.0001514,53.1 ± 2.1 mN/m
same,surface tension liquid-gas,m1 = 0.000182,51.77 ± 2.1 mN/m
same,surface tension liquid-gas,m1 = 0.0002042,50.5 ± 2.1 mN/m
same,surface tension liquid-gas,m1 = 0.0002512,49.5 ± 2.1 mN/m
same,surface tension liquid-gas,m1 = 0.000302,48.5 ± 2.1 mN/m
same,surface tension liquid-gas,m1 = 0.0003548,47 ± 2.1 mN/m
same,surface tension liquid-gas,m1 = 0.0004074,47 ± 2.1 mN/m
same,surface tension liquid-gas,m1 = 0.0005012,47 ± 2.1 mN/m
same,surface tension liquid-gas,m1 = 0.0006166,47 ± 2.1 mN/m
same,surface tension liquid-gas,m1 = 0.0008128,46.5 ± 2.1 mN/m
same,surface tension liquid-gas,m1 = 0.001,46 ± 2.1 mN/m
same,surface tension liquid-gas,m1 = 0.001514,45.6 ± 2.1 mN/m
same,surface tension liquid-gas,m1 = 0.002042,45 ± 2.1 mN/m
same,surface tension liquid-gas,m1 = 0.002291,44.5 ± 2.1 mN/m
same,surface tension liquid-gas,m1 = 0.002512,44 ± 2.1 mN/m
same,surface tension liquid-gas,m1 = 0.002754,43.5 ± 2.1 mN/m
same,surface tension liquid-gas,m1 = 0.00302,42.5 ± 2.1 mN/m
same,surface tension liquid-gas,m1 = 0.003311,42.5 ± 2.1 mN/m
same,surface tension liquid-gas,m1 = 0.003548,42.5 ± 2.1 mN/m
same,surface tension liquid-gas,m1 = 0.004074,42.5 ± 2.1 mN/m
same,surface tension liquid-gas,m1 = 0.005012,42.5 ± 2.1 mN/m
same,surface tension liquid-gas,m1 = 0.006026,42.5 ± 2.1 mN/m
CCCCCCCCc1ccc(C(=O)[O-])cn1.[Na+] [sodium 6-octylnicotinate] + O,surface tension liquid-gas,m1 = 5e-05,69 ± 2.2 mN/m
same,surface tension liquid-gas,m1 = 7.145e-05,68.3 ± 2.1 mN/m
same,surface tension liquid-gas,m1 = 0.0001,67 ± 2.1 mN/m
same,surface tension liquid-gas,m1 = 0.0001545,66 ± 2.1 mN/m
same,surface tension liquid-gas,m1 = 0.0002512,64.9 ± 2.1 mN/m
same,surface tension liquid-gas,m1 = 0.0003972,63.6 ± 2.1 mN/m
same,surface tension liquid-gas,m1 = 0.0006397,61.8 ± 2.1 mN/m
same,surface tension liquid-gas,m1 = 0.001,60 ± 2.1 mN/m
same,surface tension liquid-gas,m1 = 0.0015,58.4 ± 2.1 mN/m
same,surface tension liquid-gas,m1 = 0.002,57.4 ± 2.1 mN/m
same,surface tension liquid-gas,m1 = 0.0025,57.4 ± 2.1 mN/m
same,surface tension liquid-gas,m1 = 0.002999,57.4 ± 2.1 mN/m
same,surface tension liquid-gas,m1 = 0.003999,57.4 ± 2.1 mN/m
same,surface tension liquid-gas,m1 = 0.005,56 ± 2.1 mN/m
same,surface tension liquid-gas,m1 = 0.006427,54.22 ± 2.1 mN/m
same,surface tension liquid-gas,m1 = 0.009016,52.4 ± 2.1 mN/m
same,surface tension liquid-gas,m1 = 0.01,49.5 ± 2.1 mN/m
same,surface tension liquid-gas,m1 = 0.013,48 ± 2.1 mN/m
same,surface tension liquid-gas,m1 = 0.015,47.5 ± 2.1 mN/m
same,surface tension liquid-gas,m1 = 0.01702,45 ± 2.1 mN/m
same,surface tension liquid-gas,m1 = 0.02,44 ± 2.1 mN/m
same,surface tension liquid-gas,m1 = 0.025,44 ± 2.1 mN/m
same,surface tension liquid-gas,m1 = 0.02999,44 ± 2.1 mN/m
same,surface tension liquid-gas,m1 = 0.03499,44 ± 2.1 mN/m
